Each compound was assayed on genotype A, "Long" strain RSV (assay: RSV-A assay: CPE protection in HEp-2 cells, ATPlite readout). Details: HEp-2 cells, RSV-A Long strain, ATPlite readout; read-out: Human RSV-A (“Long” strain) EC50.
Type: cell-based, human respiratory syncytial virus
Outline: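 HEp-2 cells (8,000/well) with 2-fold compound dilutions in duplicate, infected with Long-strain RSV at MOI 0.1 and incubated 5 days. Cell ATP measured by ATPlite luminescence to give EC50; uninfected parallel plate gives CC50.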
With `O=C1Nc2c(F)cccc2C(c2ccccc2)=N[C@@H]1Nc1nnc(-c2ncc(C(F)(F)F)cc2N2CCOCC2)o1` [Example 360] the EC50 was < 400 nM.
For `COC[C@@H]1C[C@H]1c1sc(C(F)(F)F)nc1-c1nnc(N[C@H]2N=C(c3ccccc3)c3ccccc3NC2=O)o1` [Example 394], the EC50 was > 800 nM.
In the case of `O=C1Nc2ccccc2C(c2ccccc2)=N[C@@H]1Nc1nnc(-c2ncc(C(F)(F)F)cc2N[C@H]2CC[C@H]2O)o1` [Example 417], the EC50 is reported as > 800 nM.
In the case of `O=C1Nc2ccccc2C(c2ccccc2)=N[C@@H]1Nc1nnc(-c2ncc(C(F)(F)F)cc2N[C@@H]2CC[C@@H]2O)o1` [Example 418], the EC50 is reported as > 800 nM.
`O=C1Nc2ccccc2C(c2ccccc2)=N[C@@H]1Nc1ncc(-c2ncc(C(F)(F)F)cc2N2CCOCC2)o1` [Example 442] was tested, and the EC50 was < 400 nM.
With `O=C1Nc2ccccc2C(c2ccccc2)=N[C@@H]1Nc1nnc(-c2cn(-c3ccc(C(F)(F)F)nc3)nc2N2CCOCC2)o1` [Example 444] the EC50 was < 400 nM.
With `O=C1Nc2ccccc2C(c2ccccc2)=N[C@@H]1Nc1nnc(-c2cn(CC3CC3)nc2N2CCOCC2)o1` [Example 446] the EC50 was < 400 nM.
With `O=C1Nc2ccccc2C(c2ccccc2)=N[C@@H]1Nc1nnc(-c2cn(CC3CC3)nc2N2CCOCC2)o1` [Example 447] the EC50 was 400 to 800 nM.

Same assay, conditions: human respiratory syncytial virus, HEp-2, read-out: Human RSV-A (“Long” strain) EC50
In the case of `O=C1Nc2c(F)cccc2C(c2ccccc2)=NC1Nc1nnc(-c2ccc(N3CCOCC3)cc2)o1` (stereo not drawn) [Example 356], the EC50 is reported as 400 to 800 nM.
In the case of `N#Cc1cnc(-c2nnc(N[C@H]3N=C(c4ccccc4)c4cccc(F)c4NC3=O)o2)c(N2CCOCC2)c1` [Example 361], the EC50 is reported as < 400 nM.
`O=C1Nc2ccccc2C(c2ccccc2)=NC1Nc1nnc(-c2ccc(F)cc2)[nH]1` (stereo not drawn) [Example 363] was tested, and the EC50 was > 800 nM.
`N#Cc1ccc(-c2nnc(NC3N=C(c4ccccc4)c4ccccc4NC3=O)[nH]2)cc1` (stereo not drawn) [Example 365] gave an EC50 of 400 to 800 nM.
In the case of `O=C1Nc2ccccc2C(c2ccccc2)=NC1Nc1nnc(-c2ccncc2)[nH]1` (stereo not drawn) [Example 366], the EC50 is reported as > 800 nM.
With `O=C1Nc2ccccc2C(c2ccccc2)=NC1Nc1nnc(-c2ccccc2N2CCOCC2)[nH]1` (stereo not drawn) [Example 367] the EC50 was > 800 nM.
With `O=C1Nc2ccccc2C(c2ccccc2)=NC1Nc1ncc(-c2ccc(F)cc2)o1` (stereo not drawn) [Example 369] the EC50 was > 800 nM.
For `O=C1Nc2ccccc2C(c2ccccc2)=NC1Nc1ncc(-c2ccc(Br)cc2)o1` (stereo not drawn) [Example 370], the EC50 was > 800 nM.
`O=C1Nc2ccccc2C(c2ccccc2)=NC1Nc1ncc(-c2ccccc2)cn1` (stereo not drawn) [Example 371] was tested, and the EC50 was > 800 nM.
With `O=C1Nc2ccccc2C(c2ccccc2)=NC1Nc1nnc(C2CC2)[nH]1` (stereo not drawn) [Example 372] the EC50 was > 800 nM.
`O=C1Nc2ccccc2C(c2ccccc2)=NC1Nc1cnc(-c2ccc(F)cc2)cn1` (stereo not drawn) [Example 373] was tested, and the EC50 was > 800 nM.
In the case of `O=C1Nc2ccccc2C(c2ccccc2)=NC1Nc1ccc(-c2ccc(F)cc2)nn1` (stereo not drawn) [Example 374], the EC50 is reported as > 800 nM.
With `O=C1Nc2ccccc2C(c2ccccc2)=NC1Nc1ccc(-c2ccncc2)nn1` (stereo not drawn) [Example 375] the EC50 was > 800 nM.
For `COc1ccc(-c2ccc(NC3N=C(c4ccccc4)c4ccccc4NC3=O)nn2)cc1` (stereo not drawn) [Example 376], the EC50 was > 800 nM.
For `O=C1Nc2ccccc2C(c2ccccc2)=NC1Nc1ccc(-c2ccccc2N2CCOCC2)nn1` (stereo not drawn) [Example 378], the EC50 was > 800 nM.
For `O=C1Nc2ccccc2C(c2ccccc2F)=NC1Nc1nnc(-c2ccc(F)cc2)o1` (stereo not drawn) [Example 379], the EC50 was > 800 nM.
Work on `O=C1Nc2ccccc2C(c2cccc(F)c2)=NC1Nc1nnc(-c2ccc(F)cc2)o1` (stereo not drawn) [Example 380] yielded an EC50 of 400 to 800 nM.
In the case of `N#Cc1cccc(C2=NC(Nc3nnc(-c4ccc(F)cc4)o3)C(=O)Nc3ccccc32)c1` (stereo not drawn) [Example 381], the EC50 is reported as > 800 nM.
In the case of `O=C1Nc2ccccc2C(c2ccc(F)cc2)=NC1Nc1nnc(-c2ccc(F)cc2)o1` (stereo not drawn) [Example 382], the EC50 is reported as > 800 nM.
In the case of `O=C1Nc2ccccc2C(c2ccccc2)=N[C@@H]1Nc1nnc(-c2cc(C(F)(F)F)sc2N2CCOCC2)o1` [Example 383], the EC50 is reported as < 400 nM.
`O=C1Nc2ccccc2C(c2ccccc2)=N[C@@H]1Nc1nnc(-c2cc(C3CC3)sc2N2CCOCC2)o1` [Example 384] was tested, and the EC50 was < 400 nM.
In the case of `O=C1Nc2ccccc2C(c2ccccc2)=N[C@@H]1Nc1nnc(-c2nc(-c3ccc(F)cn3)sc2N2CCOCC2)o1` [Example 389], the EC50 is reported as < 400 nM.
For `O=C1Nc2ccccc2C(c2ccccc2)=N[C@@H]1Nc1nnc(-c2nc(-c3ccc(C(F)(F)F)nc3)sc2N2CCOCC2)o1` [Example 390], the EC50 was < 400 nM.
In the case of `COCCCc1sc(C(F)(F)F)nc1-c1nnc(N[C@H]2N=C(c3ccccc3)c3ccccc3NC2=O)o1` [Example 396], the EC50 is reported as > 800 nM.
With `Cn1cc(-c2nc(-c3nnc(N[C@H]4N=C(c5ccccc5)c5ccccc5NC4=O)o3)c(N3CCOCC3)s2)cn1` [Example 399] the EC50 was < 400 nM.
With `O=C1Nc2ccccc2C(c2ccccc2)=NC1Nc1nnc(-c2nc(Br)sc2N2CCOCC2)o1` (stereo not drawn) [Example 400] the EC50 was < 400 nM.
With `CCn1cc(-c2nnc(N[C@H]3N=C(c4ccccc4)c4ccccc4NC3=O)o2)c(N2CCOCC2)n1` [Example 401] the EC50 was < 400 nM.
`COCCn1cc(-c2nnc(N[C@H]3N=C(c4ccccc4)c4ccccc4NC3=O)o2)c(N2CCOCC2)n1` [Example 402] was tested, and the EC50 was < 400 nM.
With `O=C1Nc2ccccc2C(c2ccccc2)=N[C@@H]1Nc1nnc(-c2oc3ncccc3c2N2CCOCC2)o1` [Example 404] the EC50 was < 400 nM.
With `O=C1Nc2ccccc2C(c2ccccc2)=N[C@@H]1Nc1nnc(-c2nc(C3CCCCC3)sc2N2CCOCC2)o1` [Example 405] the EC50 was < 400 nM.
In the case of `C#Cc1nc(-c2nnc(N[C@H]3N=C(c4ccccc4)c4ccccc4NC3=O)o2)c(N2CCOCC2)s1` [Example 406], the EC50 is reported as < 400 nM.
With `COc1ccc2nccc(-c3nnc(N[C@H]4N=C(c5ccccc5)c5ccccc5NC4=O)o3)c2c1` [Example 408] the EC50 was > 800 nM.
In the case of `COCc1ccc2nccc(-c3nnc(N[C@H]4N=C(c5ccccc5)c5ccccc5NC4=O)o3)c2c1` [Example 409], the EC50 is reported as > 800 nM.
`COc1ccn2ncc(-c3nnc(N[C@H]4N=C(c5ccccc5)c5ccccc5NC4=O)o3)c2c1` [Example 410] was tested, and the EC50 was > 800 nM.
With `COCCc1cccn2ncc(-c3nnc(N[C@H]4N=C(c5ccccc5)c5ccccc5NC4=O)o3)c12` [Example 411] the EC50 was > 800 nM.
For `COCC(C)(C)Nc1cc(C(F)(F)F)cnc1-c1nnc(N[C@H]2N=C(c3ccccc3)c3ccccc3NC2=O)o1` [Example 414], the EC50 was > 800 nM.
`COCC1(Nc2cc(C(F)(F)F)cnc2-c2nnc(N[C@H]3N=C(c4ccccc4)c4ccccc4NC3=O)o2)CC1` [Example 415] was tested, and the EC50 was > 800 nM.
With `COC(C)(C)CNc1cc(C(F)(F)F)cnc1-c1nnc(N[C@H]2N=C(c3ccccc3)c3ccccc3NC2=O)o1` [Example 416] the EC50 was > 800 nM.
Work on `O=C1Nc2ccccc2C(c2ccccc2)=N[C@@H]1Nc1nnc(-c2ncc(C(F)(F)F)cc2NC[C@@H]2CCCO2)o1` [Example 419] yielded an EC50 of 400 to 800 nM.
In the case of `O=C1Nc2ccccc2C(c2ccccc2)=N[C@@H]1Nc1nnc(-c2ncc(C(F)(F)F)cc2NC[C@H]2CCCO2)o1` [Example 420], the EC50 is reported as < 400 nM.
With `O=C1Nc2ccccc2C(c2ccccc2)=N[C@@H]1Nc1nnc(-c2ncc(C(F)(F)F)cc2NCc2ccco2)o1` [Example 421] the EC50 was > 800 nM.
Compound `O=C1Nc2ccccc2C(c2ccccc2)=N[C@@H]1Nc1nnc(-c2ncc(C(F)(F)F)cc2N[C@H]2CCC[C@H]2O)o1` [Example 422] has an EC50 of 400 to 800 nM.
Work on `O=C1Nc2ccccc2C(c2ccccc2)=N[C@@H]1Nc1nnc(-c2ncc(C(F)(F)F)cc2N[C@@H]2CCC[C@@H]2O)o1` [Example 423] yielded an EC50 of 400 to 800 nM.
With `CC1(Nc2cc(C(F)(F)F)cnc2-c2nnc(N[C@H]3N=C(c4ccccc4)c4ccccc4NC3=O)o2)CCOC1` (stereo partly drawn) [Example 424] the EC50 was > 800 nM.
For `O=C1Nc2ccccc2C(c2ccccc2)=N[C@@H]1Nc1nnc(-c2cn(-c3cccnc3)nc2N2CCOCC2)o1` [Example 425], the EC50 was < 400 nM.
In the case of `COCCn1ccc2cccc(-c3nnc(N[C@H]4N=C(c5ccccc5)c5ccccc5NC4=O)o3)c21` [Example 426], the EC50 is reported as > 800 nM.
For `O=C1Nc2ccccc2C(c2ccccc2)=N[C@@H]1Nc1nnc(-c2nc(-c3ccccc3F)sc2N2CCOCC2)o1` [Example 427], the EC50 was < 400 nM.
For `O=C1Nc2ccccc2C(c2ccccc2)=N[C@@H]1Nc1nnc(-c2nc(-c3ccc(F)cc3)sc2N2CCOCC2)o1` [Example 428], the EC50 was < 400 nM.
`O=C1Nc2ccccc2C(c2ccccc2)=N[C@@H]1Nc1nnc(-c2cn(C3CCC3)nc2N2CCOCC2)o1` [Example 430] was tested, and the EC50 was < 400 nM.
With `O=C1Nc2ccccc2C(c2ccccc2)=N[C@@H]1Nc1nnc(-c2cn(-c3ccccn3)nc2N2CCOCC2)o1` [Example 431] the EC50 was < 400 nM.
`Cc1cc(-c2nnc(N[C@H]3N=C(c4ccccc4)c4ccccc4NC3=O)o2)n(C2CCOCC2)n1` [Example 432] was tested, and the EC50 was > 800 nM.
For `O=C1Nc2ccccc2C(c2ccccc2)=N[C@@H]1Nc1nnc(-c2nc3ccccc3nc2N2CCOCC2)o1` [Example 433], the EC50 was < 400 nM.
For `O=C1Nc2ccccc2C(c2ccccc2)=N[C@@H]1Nc1nnc(-c2cc3ccccc3nc2N2CCOCC2)o1` [Example 434], the EC50 was < 400 nM.
For `N#Cc1ccc2nccc(-c3nnc(N[C@H]4N=C(c5ccccc5)c5ccccc5NC4=O)o3)c2c1` [Example 435], the EC50 was > 800 nM.
In the case of `CO[C@@H]1COC[C@H]1Nc1cc(C(F)(F)F)cnc1-c1nnc(N[C@H]2N=C(c3ccccc3)c3ccccc3NC2=O)o1` [Example 436], the EC50 is reported as < 400 nM.
With `CC(C)(O)c1nc(-c2nnc(N[C@H]3N=C(c4ccccc4)c4ccccc4NC3=O)o2)c(N2CCOCC2)s1` [Example 437] the EC50 was < 400 nM.
`COCCN1CCCn2ncc(-c3nnc(N[C@H]4N=C(c5ccccc5)c5ccccc5NC4=O)o3)c21` [Example 438] was tested, and the EC50 was 400 to 800 nM.
In the case of `COC1C2CN(c3cc(C(F)(F)F)cnc3-c3nnc(N[C@H]4N=C(c5ccccc5)c5ccccc5NC4=O)o3)CC21` (stereo partly drawn) [Example 439], the EC50 is reported as > 800 nM.
For `O=C1Nc2ccccc2C(c2ccccc2)=N[C@@H]1Nc1nnc(-c2cn(-c3ccc(C(F)(F)F)cn3)nc2N2CCOCC2)o1` [Example 440], the EC50 was 400 to 800 nM.
`N#Cc1ccn2ncc(-c3nnc(N[C@H]4N=C(c5ccccc5)c5ccccc5NC4=O)o3)c2c1` [Example 441] was tested, and the EC50 was > 800 nM.
`O=C1Nc2ccccc2C(c2ccccc2)=N[C@@H]1Nc1nnc(-c2cn(-c3ccc(F)cn3)nc2N2CCOCC2)o1` [Example 448] was tested, and the EC50 was < 400 nM.

— patent US12268694B2, “Combination pharmaceutical agents as RSV inhibitors” (Enanta Pharmaceuticals, Inc., priority 2017, dated 2025)
